Consider ten compounds from patent publication US11873298B2, “Compounds and uses thereof” (JANSSEN PHARMACEUTICA NV, priority 2017, dated 2024).

Each structure is given as a SMILES string.

Experiment [1] addresses T1, SCD1 (Homo sapiens, UniProt O00767).
T1 construct: host or cells: S. cerevisiae ole1Δ strain (W303 pdr1Δ pdr3Δ background), plasmid pRS316 with TDH3 promoter and CYC1 terminator
T1 sequence (O00767 1-359): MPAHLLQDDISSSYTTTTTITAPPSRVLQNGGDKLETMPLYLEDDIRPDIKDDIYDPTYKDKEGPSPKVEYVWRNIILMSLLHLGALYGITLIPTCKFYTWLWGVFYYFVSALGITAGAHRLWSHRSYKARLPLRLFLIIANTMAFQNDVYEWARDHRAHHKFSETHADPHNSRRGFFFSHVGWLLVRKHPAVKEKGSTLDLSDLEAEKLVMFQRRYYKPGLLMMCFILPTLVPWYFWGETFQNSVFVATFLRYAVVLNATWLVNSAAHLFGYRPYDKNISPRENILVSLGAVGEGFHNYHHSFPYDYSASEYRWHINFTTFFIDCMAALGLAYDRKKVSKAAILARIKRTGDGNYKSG
In words: Growth inhibition of humanized yeast strain expressing SCD1 as sole desaturase. Conditions: humanized yeast strain expressing SCD1. Type of experiment: cell-based. The procedure, abridged:
(§1)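 OD600 growth read-out. ole1Δ yeast, pdr1Δ pdr3Δ, with Ole1/SCD1/SCD5 on a plasmid; SX-Ura media throughout; 2× cell density 0.02 in CSM-Galactose; DMSO compound dilutions; humidified 30° C.; Ole1 stopped at 24 h, SCD1/SCD5 at 40 h.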

The target in experiment [2] is T2, Ole1 (Saccharomyces cerevisiae, UniProt P21147).
T2 construct: expressed in transfected cells; host or cells: S. cerevisiae ole1Δ strain (W303 pdr1Δ pdr3Δ background), plasmid pRS316 with TDH3 promoter and CYC1 terminator
T2 sequence (P21147 1-510): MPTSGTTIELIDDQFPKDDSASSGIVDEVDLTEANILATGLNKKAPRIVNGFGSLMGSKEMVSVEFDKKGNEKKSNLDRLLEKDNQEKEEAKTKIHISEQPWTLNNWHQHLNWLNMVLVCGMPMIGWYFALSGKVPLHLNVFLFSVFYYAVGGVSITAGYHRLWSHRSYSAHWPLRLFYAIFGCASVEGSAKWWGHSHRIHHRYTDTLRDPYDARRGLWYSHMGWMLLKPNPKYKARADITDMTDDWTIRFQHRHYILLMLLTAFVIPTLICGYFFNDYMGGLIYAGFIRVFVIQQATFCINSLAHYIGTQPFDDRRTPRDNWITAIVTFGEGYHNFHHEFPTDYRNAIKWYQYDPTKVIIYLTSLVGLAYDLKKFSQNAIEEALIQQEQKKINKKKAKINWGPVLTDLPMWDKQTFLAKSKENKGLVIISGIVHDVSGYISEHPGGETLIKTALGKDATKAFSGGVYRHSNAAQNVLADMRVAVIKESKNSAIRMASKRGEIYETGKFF
In words: Growth inhibition of yeast strain expressing Ole1 as sole desaturase. Type of experiment: cell-based. As to conditions: yeast strain expressing Ole1 as sole desaturase. In short, it runs like this: as §1

The target in experiment [3] is T3, SCD5 (Homo sapiens, UniProt Q86SK9).
T3 construct: host or cells: S. cerevisiae ole1Δ strain (W303 pdr1Δ pdr3Δ background), plasmid pRS316 with TDH3 promoter and CYC1 terminator
T3 sequence (Q86SK9 1-330): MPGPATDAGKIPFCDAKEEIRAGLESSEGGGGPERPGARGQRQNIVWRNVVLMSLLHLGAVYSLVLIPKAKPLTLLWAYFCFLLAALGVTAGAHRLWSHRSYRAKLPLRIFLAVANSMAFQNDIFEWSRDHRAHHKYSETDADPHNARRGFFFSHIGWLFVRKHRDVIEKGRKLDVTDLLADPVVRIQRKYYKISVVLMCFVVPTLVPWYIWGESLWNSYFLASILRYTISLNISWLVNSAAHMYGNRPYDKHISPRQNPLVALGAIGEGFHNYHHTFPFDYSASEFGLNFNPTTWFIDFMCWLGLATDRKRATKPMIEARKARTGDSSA
The experiment can be described thus: Growth inhibition of humanized yeast strain expressing SCD5 as sole desaturase. Type of experiment: cell-based. Conditions: humanized yeast strain expressing SCD5. The procedure, abridged: as §1

Experiment [4] relates to yeast strains expressing the human ApoE4. In words: Yeast ApoE4 toxicity rescue assay (OD600 growth). As to conditions: 24 h; for EC50: read-out: ApoE4 EC50; for Emax: read-out: ApoE4 Emax.
Experiment [5] concerns yeast strains expressing the human α-synuclein. In words: Yeast α-synuclein toxicity rescue assay (OD600 growth). Conditions: 40 h; for EC50: read-out: α-Syn EC50; for Emax: read-out: α-Syn Emax.
From the text: The induced expression of α-synuclein and ApoE4 confers cytotoxicity, thus enabling the identification of compounds that can restore cell viability. This instantaneous/synchronous induction of α-synuclein and ApoE4 can be achieved due to the following expression control. In glucose-containing media, gene expression from the GAL1 promoter is ‘off’ and actively repressed by additional epigenetic factors. In raffinose, expression is ‘off’, but the promoter not actively repressed. Upon transition to galactose-containing media, the promoter is instantaneously turned ‘on’ to achieve robust and synchronous induction of α-synuclein or ApoE4 expression. This highly regulated induction provides a robust window for the determination of both efficacy (amplitude of protective effect) and potency (concentration of protective effect) of cytoprotective compounds.
Re-suspended compound stocks were subsequently arrayed into 384 well compound plates using automated pipetting. All other wells not receiving stock compound were filled with 10 μL of 100% DMSO using an automated plate filler (Multidrop Combi). An 11 point, 2-fold serial dilution was then performed using the robotic platform. Compound assay plates were covered with foil and stored at −20° C. until use.
Each strain was handled according to standard protocols and cultured in media composed of CSM (complete synthetic media), YNB (yeast nitrogenous base), and a 2% (w/v) carbon source (either glucose, raffinose, or galactose).
In a standard yeast assay, a single-use aliquot of cells was thawed on ice and diluted into CSM/glucose (5 mL). Cultures were grown for 8 hours at 30° C. This pre-growth enables the yeast to exit the thaw and begin to grow without expressing aSyn or ApoE4. After 8 hours, cell density (OD600) was determined and cultures diluted to an OD600 of 0.01 in CSM/raffinose for an overnight culture phase at 30° C. During this period, the active glucose repression of the GAL1 promoter was relieved; however, expression of the α-Syn/ApoE4 genes were not yet induced. After ˜16 hours of growth, cultures attain an OD600 of 0.4-0.8 and were ready to apply to assay plates containing compound.
Compound profiling assays were executed in clear-bottom 384 well plates. First, compound plates were thawed at room temperature for 45′, centrifuged at 1,000×g for 1 minute, and the foil removed. Clear 384 well assay plates were then filled with 15 μL of CSM/galactose. […] The pin tool was washed iteratively with both 50% DMSO and 100% ethanol between each assay plate. After delivering compound to each assay plate, the overnight CSM/raffinose aSyn or ApoE4 cultures were added at a 2X cell density (0.04 for aSyn and 0.08 for ApoE4) in CSM/galactose to achieve a final assay OD600 of 0.02 and 0.04 for aSyn and ApoE, respectively. The cultures (15 μL per well) were then dispensed to the compound -containing 384 well assay plates using an automated plate filler. Plates were incubated in a humidified 30° C. incubator for 40 or 24 hours for aSyn and ApoE4, respectively. The ODsoo of each assay plate was then read with a microplate reader (e.g., Perkin Elmer Envision).
The efficacy and potency of compounds were calculated according to the following. Raw data (OD600 values) were first background corrected to account for OD600 contributed by the plate and media itself. The efficacy (percent above DMSO, herein referred to as “Emax”) was calculated according to the equation: (Experimental well−DMSO control well)/(DMSO control well)*100. […] Normalized dose-response data was fit with a logistic regression curve using Spotfire (TIBCO), or similar curve-fitting software package. EC50 values were then reported along with EMax to provide both efficacy and potency measures for each analog and enable further compound design.

For orientation: IC50 means the concentration needed to halve the response being measured. One may read the EC50 as the midpoint of the concentration-response curve. `CCOc1ccc(-c2noc(N3CCC(C(=O)N4CCCC(c5ccccc5)C4)CC3)n2)cc1OC` (stereo not shown) [compound 100]: the values for the IC50 in experiment [1], in experiment [2] and in experiment [3] were 32.8 µM, > 45 µM and > 45 µM, respectively. The EC50 in experiment [4] was determined as 2.11 µM; in experiment [5], 1.19 µM. Moreover, the Emax stood at 651% in experiment [4] and 385% in experiment [5].

In the case of `COc1ccc(-c2noc(C3CCN(C(=O)CNC(=O)c4ccc(C)c(C)c4)CC3)n2)cc1OC` [compound 15], the IC50 in experiment [1], in experiment [2] and in experiment [3] was > 45 µM each time. For the same compound, the EC50 in experiment [4] is 3.63 µM; in experiment [5] it was 1.71 µM. In addition, the Emax came out at 866% in experiment [4] and 628% in experiment [5].

For the compound `Cc1ccc(N2CC(C(=O)N3CCC(c4nc(-c5ccccc5)no4)CC3)CC2=O)cc1C` (stereo not shown) [compound 1], the IC50 in experiment [1] was > 45 µM; in experiment [2] it was 40.3 µM; in experiment [3] it was > 45 µM. Further, the figures for the Emax in experiment [4] and in experiment [5] were 320% and 155%, respectively.

As for `COc1ccc(-c2noc(C3CCN(C(=O)C4CC(=O)N(c5ccc(C)c(C)c5)C4)CC3)n2)cc1` (stereo not shown) [compound 20], the IC50 in experiment [1], in experiment [2] and in experiment [3] was > 45 µM in each case. For the same compound, the 50% effective concentration (EC50) was determined as 16.2 µM in experiment [4] and 15.1 µM in experiment [5]. Further, the Emax in experiment [4] is 529%; in experiment [5], 181%.

As to `CCOc1ccc(-c2noc(C3CCN(C(=O)c4cnc(-c5ccccc5)[nH]4)CC3)n2)cc1OC` [compound 98], the results for the IC50 in experiment [1], in experiment [2] and in experiment [3] were > 45 µM, > 45 µM and 41.1 µM, respectively. Besides, the results for the EC50 in experiment [4] and in experiment [5] were 9.75 µM and 8.01 µM, respectively. In addition, the Emax in experiment [4] was determined as 650%; in experiment [5], 386%.

Regarding `COc1ccc(-c2noc(C3CCN(C(=O)CNC(=O)c4ccc(C)c(C)c4)CC3)n2)cc1` [compound 16], the half-inhibitory concentration (IC50) was 37.1 µM in experiment [1], > 45 µM in experiment [2] and > 45 µM in experiment [3]. For the same compound, the EC50 in experiment [4] is 21.2 µM; in experiment [5] it was 17.8 µM. Moreover, the Emax in experiment [4] came out at 418%; in experiment [5], 249%.

On to `CCOc1ccc(-c2noc(C3CCN(C(=O)NC4CC4c4ccccc4)CC3)n2)cc1OC` (stereo not shown) [compound 80], for which the IC50 in experiment [1], in experiment [2] and in experiment [3] was > 45 µM each time. Moreover, the EC50 in experiment [4] turned out to be 6.01 µM; in experiment [5] it was 3.32 µM. Besides, the Emax in experiment [4] is 262%; in experiment [5], 188%.

Regarding `COc1ccc(-c2noc(C3CCN(C(=O)[C@@H](C)NC(=O)c4ccccc4)CC3)n2)cc1OC` (single isomer, unassigned) [Compound 60], in experiment [1], the 50% inhibitory concentration (IC50) was > 45 µM and the “SCD1 % Max Inhibition” value was determined as 72.03%. Also, in experiment [2], the 50% inhibitory concentration (IC50) was > 45 µM and the “OLE1 % Max Inhibition” value came to 2.91%. Further, in experiment [3], the IC50 worked out at 41.1 µM and the “SCD5 % Max Inhibition” value is recorded as 57.19%. In experiment [4], the EC50 is 0.119 µM and the Emax was found to be 795%. Further, in experiment [5], the EC50 came to 0.032 µM and the Emax was 605%.

Take `Cc1cccc(-c2nc(C3CCN(C(=O)[C@H]4CC(=O)N(c5ccc(C)c(C)c5)C4)CC3)no2)c1` (single isomer, unassigned) [compound 73]: the values for the half-inhibitory concentration (IC50) in experiment [1], in experiment [2] and in experiment [3] were 33.7 µM, > 45 µM and > 45 µM, respectively. In addition, the Emax in experiment [4] was 303%; in experiment [5] it was 151%. In addition, the 50% effective concentration (EC50) in experiment [5] was 15.8 µM.

Turning to `COc1ccc(-c2noc(C3CCN(C(=O)CNc4nccc5ccccc45)CC3)n2)cc1OC` [Compound 55], in experiment [1], the midpoint of inhibition, the IC50, lay at 33.7 µM and the “SCD1 % Max Inhibition” value is recorded as 74.99%. In addition, in experiment [2], the IC50 was > 45 µM and the “OLE1 % Max Inhibition” value was 114.12%. Moreover, in experiment [3], the IC50 is > 45 µM and the “SCD5 % Max Inhibition” value was found to be 74.78%. Besides, in experiment [4], the EC50 amounted to 7.9 µM and the Emax was found to be 29%. In addition, in experiment [5], the EC50 amounted to 23.8 µM and the Emax turned out to be 47%.
